Assay results as given in patent US5500217A, “Personal care formulations” (priority 1991, dated 1996).
Where a name gives a salt, the structure may show the parent alone.

Tests used:
[1] = test system: Pseudomonas aeruginosa; assay: Challenge test in shampoo, number of surviving (viable) bacteria; type: cell-based, Pseudomonas aeruginosa (ATCC 19429)
Procedure: (§1) Further aspects of the present invention are described in the following illustrative examples. Unless otherwise stated all refer to parts by weight. Also, personal care formulations in accordance with the present invention were subjected to evaluation of the antimicrobial properties of the composition. The anti-microbial evaluation was effected, under aseptic conditions throughout, in the following manner.
(§2) In the anti-microbial evaluation, the formulations were tested for anti-microbial activity against bacteria and/or fungi. The bacteria used were either Pseudomonas aeruginosa or Staphylococcusaureus. The fungus used was Candida albicans.
Aliquots (4 parts) of the above shampoo were then prepared with concentrations of the biocides indicated in Table 3 at 500 and 125 ppm of active ingredient.
The above samples were then challenged with a 0.2 parts by volume inoculum of a 24 hour culture of Pseudomonas aeruginosa (ATCC 19429) containing approximately 1×10^8 colony forming units (cfu's) per milliliter. The samples were then incubated in the dark at 25° C., 1 milliliter samples taken after 24 hours, 48 hours and 7 days and the number of surviving bacteria determined.
The procedure of Examples 4-14 were repeated using the 1:1 silver complex of N-methyl-N-hydroxythiobenzamide at four different concentrations.

[2] = test system: Staphylococcus aureus; assay: Anti-microbial challenge test in oil in water emulsion (base cream), Staphylococcus aureus; type: cell-based, Staphylococcus aureus (ATCC 6538); settings: viable count < 10^2 cells cm^-3; for MLC, SA, 7d: 7 days
Procedure: as §1, §2
(§3) To aliquots (20 parts) of the emulsion were added various anti-microbial agents at concentrations of 500, 125, 31.25 and 7.8 ppm of active ingredients.
(§4) One sample of each mixture was inoculated with 0.2 parts by volume of a 24 hour culture of Staphylococcus aureus (ATCC 6538) containing 10^8 cells cm^-3. Duplicate samples of each mixture were inoculated with 0.2 parts by volume of a 48 hour culture of Candida albicans (ATCC 10231) containing 10^8 cells cm^-3.
(§5) The samples were then incubated and samples removed after 24 hours, 48 hours and 7 days as described in Examples 1 and 2 with the exception that the samples were not subjected to a further challenge after seven days.

[3] = test system: Candida albicans; assay: Anti-microbial challenge test in oil in water emulsion (base cream), Candida albicans; type: cell-based, Candida albicans (ATCC 10231); settings: viable count < 10^2 cells cm^-3; for MLC, CA, 7d: 7 days
Procedure: as §1, §2, §3, §4, §5

[4] = test system: Pseudomonas aeruginosa; assay: Anti-microbial challenge test in protein-containing shampoo (MLC, two challenges); type: cell-based, Pseudomonas aeruginosa (ATCC 19429); settings: viable count < 10^2 cells cm^-3; for MLC, Challenge 1, 48h / MLC, Challenge 1, 7d: first challenge; for MLC, Challenge 1, 7d / MLC, Challenge 2, 7d: 7 days
Procedure: as §1, §2
To aliquots (20 parts) of the shampoo formulation prepared as described were added various anti-microbial agents at concentrations of 125, 62.5, 31.25, 7.8 and 1.56 ppm of active ingredient, not all of the anti-microbial agents being used at all of these levels. The anti-microbial agents, and the levels used are as set out in Table One.
One sample of a mixture of the shampoo formulation and the anti-microbial agent was stored for one month (4 weeks) at 40° C. and a duplicate sample of the mixture was stored for one month at ambient temperature (about 20° C.).
The variants thus obtained were then challenged with a 0.2 parts by volume inoculum of a 24 hour culture of Pseudomonas aeruginosa (ATCC 19429) containing approximately 1×10^8 colony forming units (cfu's) per cm^3. The variants were than incubated in the dark at 25° C., and samples (one cm^3) were taken after 24 hours, 48 hours and 7 days. The number of surviving bacteria was determined by the decimal dilution method and the viable cells enumerated by incubation of the survivor detection plates at 30° C. for three days.
The results are shown in Table One in which the concentration of anti-microbial agent is the minimum required to reduce the count of viable cells to less than 10^2 cells cm^-3.
After removing the seven day sample, the samples of the shampoo formulation were challenged with a further 0.2 parts of a similar Pseudomonas aeruginosa culture and incubation at 25° C. was continued. Further one cm^3 samples were removed after 24 hours, 48 hours and 7 days and the number of surviving bacteria was determined in the same manner.

[5] = (S): shampoo stored one month at 40° C.
[6] = (S): shampoo stored one month at 40° C., second challenge
[7] = shampoo stored one month at ambient temperature
[8] = shampoo stored one month at ambient temperature, second challenge

SMILES: Cc1csc(=S)n1[O-].Cc1csc(=S)n1[O-].Cc1csc(=S)n1[O-].[In+3] [Example 11]
- Viable bacteria after 24 hr ([1]; Table 3, 125 ppm): 9.1 E2
- Viable bacteria after 48 hr ([1]; Table 3, 125 ppm): < 10
- Viable bacteria after 7 days ([1]; Table 3, 125 ppm): < 10
- Viable bacteria after 24 hr ([1]; Table 3, 500 ppm): < 10
- Viable bacteria after 48 hr ([1]; Table 3, 500 ppm): < 10
- Viable bacteria after 7 days ([1]; Table 3, 500 ppm): < 10

SMILES: Cc1csc(=S)n1[O-].Cc1csc(=S)n1[O-].Cc1csc(=S)n1[O-].[Co+3] [Example 8]
- Viable bacteria after 24 hr ([1]; Table 3, 125 ppm): 2.1 E3
- Viable bacteria after 48 hr ([1]; Table 3, 125 ppm): < 10
- Viable bacteria after 7 days ([1]; Table 3, 125 ppm): < 10
- Viable bacteria after 24 hr ([1]; Table 3, 500 ppm): 1.2 E3
- Viable bacteria after 48 hr ([1]; Table 3, 500 ppm): < 10
- Viable bacteria after 7 days ([1]; Table 3, 500 ppm): < 10

SMILES: On1ccccc1=S [SP, sodium salt of 1hydroxy-2-pyridinethione]
- MLC, SA, 24h [2]: > 500 ppm w/v
- MLC, SA, 48h [2]: 500 ppm w/v
- MLC, SA, 7d [2]: 125 ppm w/v
- MLC, CA, 24h [3]: 500 ppm w/v
- MLC, CA, 48h [3]: 500 ppm w/v
- MLC, CA, 7d [3]: 31.25 ppm w/v

SMILES: Cc1csc(=S)n1[O-].Cc1csc(=S)n1[O-].Cc1csc(=S)n1[O-].[Y+3] [Example 6]
- Viable bacteria after 24 hr ([1]; Table 3, 125 ppm): 4.5 E4
- Viable bacteria after 48 hr ([1]; Table 3, 125 ppm): > 1.0 E4
- Viable bacteria after 7 days ([1]; Table 3, 125 ppm): < 3.0 E4
- Viable bacteria after 24 hr ([1]; Table 3, 500 ppm): 1.4 E4
- Viable bacteria after 48 hr ([1]; Table 3, 500 ppm): > 3.0 E4
- Viable bacteria after 7 days ([1]; Table 3, 500 ppm): < 3.0 E4

SMILES: Cc1csc(=S)n1[O-].Cc1csc(=S)n1[O-].[Mn+2] [Example 7]
- Viable bacteria after 24 hr ([1]; Table 3, 125 ppm): 2.4 E4
- Viable bacteria after 48 hr ([1]; Table 3, 125 ppm): > 3.0 E4
- Viable bacteria after 7 days ([1]; Table 3, 125 ppm): > 3.0 E4
- Viable bacteria after 24 hr ([1]; Table 3, 500 ppm): 3.5 E4
- Viable bacteria after 48 hr ([1]; Table 3, 500 ppm): > 3.0 E4
- Viable bacteria after 7 days ([1]; Table 3, 500 ppm): > 3.0 E4

SMILES: Cc1csc(=S)n1[O-].Cc1csc(=S)n1[O-].[Co+2] [Example 13]
- Viable bacteria after 24 hr ([1]; Table 3, 125 ppm): 2.1 E3
- Viable bacteria after 48 hr ([1]; Table 3, 125 ppm): < 10
- Viable bacteria after 7 days ([1]; Table 3, 125 ppm): < 10
- Viable bacteria after 24 hr ([1]; Table 3, 500 ppm): 5.2 E2
- Viable bacteria after 48 hr ([1]; Table 3, 500 ppm): < 10
- Viable bacteria after 7 days ([1]; Table 3, 500 ppm): < 10

SMILES: Cc1csc(=S)n1O [Example 4, 3hydroxy-4-methylthiazol-2(3H)-thione]
- Viable bacteria after 24 hr ([1]; Table 3, 125 ppm): 1.7 E4
- Viable bacteria after 48 hr ([1]; Table 3, 125 ppm): > 3.0 E4
- Viable bacteria after 7 days ([1]; Table 3, 125 ppm): > 3.0 E4
- Viable bacteria after 24 hr ([1]; Table 3, 500 ppm): 1.2 E4
- Viable bacteria after 48 hr ([1]; Table 3, 500 ppm): > 3.0 E4
- Viable bacteria after 7 days ([1]; Table 3, 500 ppm): > 3.0 E4

SMILES: Cc1csc(=S)n1O.Cc1csc(=S)n1O.[Zn] [ZTA, 2:1 complex of 3hydroxy-4-methyl-thiazol-2(3H) thione and zinc]
- MLC, SA, 24h [2]: 500 ppm w/v
- MLC, SA, 48h [2]: 31.25 ppm w/v
- MLC, SA, 7d [2]: 7.8 ppm w/v
- Viable bacteria after 24 hr ([1]; Table 3, 125 ppm): 6.2 E3
- Viable bacteria after 48 hr ([1]; Table 3, 125 ppm): < 10
- Viable bacteria after 7 days ([1]; Table 3, 125 ppm): < 10
- Viable bacteria after 24 hr ([1]; Table 3, 500 ppm): 7.6 E3
- Viable bacteria after 48 hr ([1]; Table 3, 500 ppm): < 10
- Viable bacteria after 7 days ([1]; Table 3, 500 ppm): < 10
- MLC, CA, 24h [3]: 31.25 ppm w/v
- MLC, CA, 48h [3]: 31.25 ppm w/v
- MLC, CA, 7d [3]: 31.25 ppm w/v
- MLC, Challenge 1, 48h [4, 5]: 62.5 ppm w/v
- MLC, Challenge 1, 7d [4, 5]: 62.5 ppm w/v
- MLC, Challenge 2, 48h [4, 6]: 62.5 ppm w/v
- MLC, Challenge 2, 7d [4, 6]: 62.5 ppm w/v
- MLC, Challenge 1, 48h [4, 7]: 7.8 ppm w/v
- MLC, Challenge 1, 7d [4, 7]: 7.8 ppm w/v
- MLC, Challenge 2, 24h ([4]; shampoo stored one month at ambient temperature, second challenge, 24 h): 31.25 ppm w/v
- MLC, Challenge 2, 48h [4, 8]: 31.25 ppm w/v
- MLC, Challenge 2, 7d [4, 8]: 31.25 ppm w/v

SMILES: Cc1csc(=S)n1[O-].Cc1csc(=S)n1[O-].Cc1csc(=S)n1[O-].[Sc+3] [Example 9]
- Viable bacteria after 24 hr ([1]; Table 3, 125 ppm): 2.6 E3
- Viable bacteria after 48 hr ([1]; Table 3, 125 ppm): 8.0
- Viable bacteria after 7 days ([1]; Table 3, 125 ppm): < 10
- Viable bacteria after 24 hr ([1]; Table 3, 500 ppm): 2.0 E3
- Viable bacteria after 48 hr ([1]; Table 3, 500 ppm): 1.7 E2
- Viable bacteria after 7 days ([1]; Table 3, 500 ppm): < 10

SMILES: Cc1csc(=S)n1[O-].Cc1csc(=S)n1[O-].[Zn+2] [Example 14]
- Viable bacteria after 24 hr ([1]; Table 3, 125 ppm): 3.3 E3
- Viable bacteria after 48 hr ([1]; Table 3, 125 ppm): < 10
- Viable bacteria after 7 days ([1]; Table 3, 125 ppm): < 10
- Viable bacteria after 24 hr ([1]; Table 3, 500 ppm): 4.4 E3
- Viable bacteria after 48 hr ([1]; Table 3, 500 ppm): < 10
- Viable bacteria after 7 days ([1]; Table 3, 500 ppm): < 10

SMILES: Cc1csc(=S)n1[O-].Cc1csc(=S)n1[O-].[O]=[V+2] [Example 12]
- Viable bacteria after 24 hr ([1]; Table 3, 125 ppm): 1.5 E4
- Viable bacteria after 48 hr ([1]; Table 3, 125 ppm): > 3.0 E4
- Viable bacteria after 7 days ([1]; Table 3, 125 ppm): 8.3 E5
- Viable bacteria after 24 hr ([1]; Table 3, 500 ppm): 1.3 E3
- Viable bacteria after 48 hr ([1]; Table 3, 500 ppm): < 10
- Viable bacteria after 7 days ([1]; Table 3, 500 ppm): < 10

SMILES: [O-]n1ccccc1=S.[O-]n1ccccc1=S.[Zn+2] [ZP, 1:2 complex of zinc with 1hydroxy-2-pyridinethione]
- MLC, SA, 24h [2]: > 500 ppm w/v
- MLC, SA, 48h [2]: > 500 ppm w/v
- MLC, SA, 7d [2]: 500 ppm w/v
- MLC, CA, 24h [3]: 500 ppm w/v
- MLC, CA, 48h [3]: 500 ppm w/v
- MLC, CA, 7d [3]: 31.25 ppm w/v

SMILES: CN(O)C(=S)c1ccccc1.[Ag] [Example 15, 1:1 silver complex of N-methyl-N-hydroxythiobenzamide]
- Viable bacteria after 24 hrs ([1]; Table 4, 7.13 ppm): < 10
- Viable bacteria after 48 hrs ([1]; Table 4, 7.13 ppm): < 10
- Viable bacteria after 7 days ([1]; Table 4, 7.13 ppm): < 10
- Viable bacteria after 24 hrs ([1]; Table 4, 31.25 ppm): < 10
- Viable bacteria after 48 hrs ([1]; Table 4, 31.25 ppm): < 10
- Viable bacteria after 7 days ([1]; Table 4, 31.25 ppm): < 10
- Viable bacteria after 24 hrs ([1]; Table 4, 125 ppm): < 10
- Viable bacteria after 48 hrs ([1]; Table 4, 125 ppm): < 10
- Viable bacteria after 7 days ([1]; Table 4, 125 ppm): < 10
- Viable bacteria after 24 hrs ([1]; Table 4, 500 ppm): < 10
- Viable bacteria after 48 hrs ([1]; Table 4, 500 ppm): < 10
- Viable bacteria after 7 days ([1]; Table 4, 500 ppm): < 10
